Entries after “also recorded” stand apart in the source; their conditions may differ.
How the values were obtained:
SH-SY5Y cells = assay: Seahorse analysis of mitochondrial respiration (OCR); format: cell-based, human; settings: 10 μM DAPT vs untreated
Procedure: (§1) Respirometry of cultured cells was performed using the XF24e Extracellular Flux Analyzer (Seahorse Bioscience). Oxygen consumption was measured in basal conditions (Seahorse media with 25 mM glucose and 2 mM pyruvate) and after the sequential addition of 1 μM oligomycin (Complex V inhibitor), 0.75 μM FCCP (uncoupler) and 1 μM rotenone/1 μM antimycin A (Complex I and Complex III inhibitors respectively).
(§2) Respirometry of cultured cells was performed using the XF24e Extracellular Flux Analyzer (Seahorse Bioscience). Oxygen consumption was measured in basal conditions (Seahorse media with 25 mM glucose and 2 mM pyruvate) and after the sequential addition of 1 μM oligomycin (complex V inhibitor), 0.75 μM FCCP (uncoupler), and 1 μM rotenone/1 μM antimycin A (complex I and complex III inhibitors, respectively). All results were averages of five or more biological replicates. Every biological replicate consisted of three technical replicates. For every technical replicate, we plated equal number of cells (25,000 cell/well when MEFs were used, and 50,000 cells/well when human primary fibroblasts were analyzed). The number of cells was also counted after every respirometry assay to correct for cell death. All oxygen consumption (OCR) data were normalized by the number of viable cells or by protein quantity when isolated mitochondria were used.

ACAT1 = assay: ACAT activity assay (conversion of 3H-cholesterol to cholesteryl esters); format: cell-based, mouse; settings: PS-DKO cells; 100 nM BI, 12-16 h
Procedure: To measure cholesterol uptake in vivo, cultured cells were incubated in serum-free medium for 2 h to remove all exogenous lipids. After that, 2.5 μCi/ml of 3H-cholesterol was added to FBS-free DMEM containing 2% FAF-BSA, allowed to equilibrate for at least 30 min at 37° C., and the radiolabeled medium was added to the cells for the indicated periods of time. Cells were then washed and collected in DPBS, removing a small aliquot for protein quantification. Lipids were extracted in 3 volumes of chloroform:methanol (2:1 v/v). After vortexing and centrifugation at 8000×g for 5 min, the organic phase was blown to dryness under nitrogen. […] Iodine-stained bands corresponding to cholesterol and cholesteryl esters were scraped and counted.
(§3) To measure cholesterol esterification in vivo, cultured cells were incubated in serum-free medium for 2 h to remove all exogenous lipids. […] Cells were then washed and collected in DPBS, removing a small aliquot for protein quantification. […] Iodine-stained bands corresponding to cholesterol and cholesteryl esters were scraped and counted.
as §3

FAD fibroblasts = assay: Seahorse analysis of mitochondrial respiration (OCR); format: cell-based, human; settings: FAD patient fibroblasts; BI
Procedure: as §1, §2

Structure (SMILES)	mitochondrial respiration (OCR) (SH-SY5Y cells)	incorporation of radiolabeled cholesterol into cholesteryl esters (ACAT1 activity) (ACAT1)	mitochondrial respiration (OCR) (FAD fibroblasts)
C[C@H](NC(=O)Cc1cc(F)cc(F)c1)C(=O)N[C@H](C(=O)OC(C)(C)C)c1ccccc1 [DAPT]	significant decrease in respiration; also recorded: significant reduction in respiration		
C[C@@H](NC(=O)c1cc(C(=O)N[C@@H](Cc2ccccc2)[C@H](O)CNC2CC2)cc(N(C)S(C)(=O)=O)c1)c1ccccc1 [BI, β-secretase inhibitor IV]		reduced significantly the incorporation of radiolabeled cholesterol into cholesterol esters; also recorded: reduced the incorporation of cholesterol into cholesteryl esters	reversed the defect in mitochondrial respiration; also recorded: rescued the respiration defects
